Assay results published in PubChem BioAssay (NCI).
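Following 48 hours of exposure in 96-well plates, responses at five concentrations were used to interpolate endpoints linearly. TGI marks complete inhibition of growth.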

Legend:
Assay in all cases: NCI anticancer screen, dose series, 48 h
786-0 renal = test system: 786-0 renal
UO-31 renal = test system: UO-31 renal
MDA-MB-231 breast = test system: MDA-MB-231 breast
SK-OV-3 ovarian = test system: SK-OV-3 ovarian
BT-549 breast = test system: BT-549 breast
HCT-15 colon = test system: HCT-15 colon
HCT-116 colon = test system: HCT-116 colon
NCI-H460 lung = test system: NCI-H460 lung

| SMILES | TGI (786-0 renal) [µM] | TGI (UO-31 renal) [µM] | TGI (MDA-MB-231 breast) [µM] | TGI (SK-OV-3 ovarian) [µM] | TGI (BT-549 breast) [µM] | TGI (HCT-15 colon) [µM] | TGI (HCT-116 colon) [µM] | TGI (NCI-H460 lung) [µM] |
| --- | --- | --- | --- | --- | --- | --- | --- | --- |
| CC#CC(O)(C(=O)OC1CC2CCC(C1)N2C)C1CCCC1 (configuration not stated) | > 100 | > 100 | > 100 | > 100 | > 100 | > 100 | > 100 | > 100 |
| CCC(=O)C(C(C)/C=C/CCSc1ccccc1)C(O)CCCCCC(=O)OC (configuration not stated) | > 100 | > 100 | > 100 | > 100 | > 100 | > 100 | > 100 | > 100 |
| OC(C/C=N/Nc1ccccc1)(C(F)(F)Cl)C(F)(F)Cl | > 10 | > 10 | > 10 | > 10 | – | > 10 | > 10 | > 10 |
| O=C1c2ccccc2-c2c1c(-c1cccc(Br)c1)nc1ccc3ccccc3c21 | > 100 | > 100 | > 100 | > 100 | > 100 | > 100 | > 100 | > 100 |
| CC(=O)OCC(Br)C1(C)CCC(C(C)(C)Br)O1 (configuration not stated) | > 100 | > 100 | > 100 | > 100 | > 100 | – | > 100 | > 100 |
| CCc1n[nH]c(=O)n1CCO | > 100 | > 100 | > 100 | > 100 | > 100 | > 100 | > 100 | > 100 |
| Cc1nc2c(=O)n3c4c(cccc4c2o1)CCC3 | > 100 | > 100 | > 100 | > 100 | > 100 | > 100 | > 100 | > 100 |
| Cc1cc(-c2nc3cccc(F)c3s2)ccc1N | > 100 | > 100 | > 100 | > 100 | > 100 | > 100 | > 100 | > 100 |
| N#CCCN(CCN(CCC#N)C(=O)Nc1ccccc1)C(=O)Nc1ccccc1 | > 100 | > 100 | > 100 | > 100 | > 100 | > 100 | > 100 | > 100 |
| CC(C)(C)C1CCC2c3c([nH]c4ccccc34)C3C(=O)N(c4ccc5c(c4)C(=O)c4ccccc4C5=O)C(=O)C3C2C1 (configuration not stated) | > 100 | – | > 100 | > 100 | > 100 | > 100 | > 100 | > 100 |
| COc1cc2c(cc1OC)C(=O)N(NC1=NCCN1)C2=O | > 100 | – | > 100 | > 100 | > 100 | > 100 | > 100 | > 100 |
| COc1ccccc1CNC(=O)[C@H](Cc1ccc(O)cn1)NC(C)=O | > 100 | > 100 | – | > 100 | > 100 | > 100 | > 100 | > 100 |
| COc1cccc(-c2nc(-c3cnccn3)n(COCCO)n2)c1 | > 100 | > 100 | > 100 | > 100 | > 100 | > 100 | > 100 | > 100 |
| CC(=O)c1cc(C)n2c1CS[C@@H]2c1ccccc1 | 50.5 | > 100 | > 100 | > 100 | > 100 | > 100 | > 100 | – |
| C/C=C/[C@H](O[Si](C)(C)C(C)(C)C)[C@@H](O)/C=C/C(=O)OCC | 41.5 | 42.5 | 66 | – | 65.4 | 27.7 | 32.3 | 34.6 |
| COCCOC(=O)C(C)=[N+]=[N-] | > 100 | > 100 | > 100 | – | > 100 | > 100 | > 100 | > 100 |
| CCCCNC(=S)/N=C/c1c(O)c2ccccc2[nH]c1=O | > 10 | > 10 | > 10 | – | > 10 | > 10 | – | > 10 |
| Cc1ccc2c(=O)cc(-c3sc4ccccc4c3C)[nH]c2n1 | 46.8 | – | > 100 | 71.4 | 44.7 | 73.8 | 55.6 | – |
| O=c1[nH]n(Cc2ccccc2Cl)c2ccccc12 | > 100 | > 100 | > 100 | – | – | > 100 | > 100 | > 100 |
| C=CCN1CN(c2ccccc2)C2(CCN(CCCC3(c4ccc(F)cc4)OCCO3)CC2)C1=O | 33.6 | 22.3 | 33.7 | 43.3 | – | 25.7 | 28.4 | – |
| CC(C)C(NC(=O)C(Cc1ccccc1)NC(=O)[C@H]1CCC[C@H]1NC(=O)C(N)Cc1ccc(O)cc1)C(N)=O (some centres not stated) | > 100 | > 100 | > 100 | > 100 | – | > 100 | > 100 | > 100 |
| Cn1c2ccccc2c(=O)c2[nH]c3ccccc3c21 | > 100 | > 100 | > 100 | > 100 | – | > 100 | > 100 | > 100 |
| COc1cc(C2C(Cl)C(=O)N2NC(=O)c2ccc(NC(C)=O)cc2OC)ccc1O (configuration not stated) | 33.3 | 95.5 | – | > 100 | 33.9 | 40.6 | 33.2 | – |
| CC1(C)O[C@@H](CBr)C[C@H](C[C@H]2C[C@@H](O)C[C@@H](CCOCc3ccccc3)O2)O1 | 39.8 | 43.5 | > 100 | 33.7 | – | 57.1 | 45.4 | 87.1 |
| N#CC(C#N)=Cn1c(=S)[nH]c2ccccc21 | > 100 | > 100 | > 100 | > 100 | – | – | > 100 | > 100 |
| O=C1Oc2cc3c(c4cccc1c24)O[C@H](c1ccccc1)[C@@H](c1ccccc1)[C@@H]3c1ccc(Cl)cc1 | > 100 | – | 52.3 | > 100 | – | > 100 | > 100 | > 100 |
| CN(C)Cc1cc(N=Nc2ccc(Cl)cc2)ccc1OC(=O)c1ccccc1 | 27.8 | 25.2 | 28.6 | – | 47.8 | 29.1 | 29.9 | 32.4 |
| CCOP(=O)(OCC)/C(C#N)=C/c1ccnc2ccccc12 | 51.2 | – | 58.2 | 82.7 | 50.9 | 52.4 | > 100 | > 100 |
